The subject of test [1] is AdmJ. Kind of test: ATP-[…]PPi exchange assay. The settings on record: 5 mM ATP, 1 mM PPi, 10 mM MgCl2, 5 mM TCEP, 75 mM Tris pH 7.5, RT. Type of test: biochemical, Pantoea agglomerans.
In test [2] the target is AdmH (Pantoea agglomerans, UniProt Q84FL5). As to the kind of experiment: chiral radio-HPLC. Type of test: biochemical. The settings on record: labelled compound ([14C]-L-Phe, 100 µM); 20 mM tricine pH 8.25, 30 °C.

The Km is the concentration of substrate that gives half-maximal velocity.

`N[C@@H](CC(=O)O)c1ccccc1` [(S)-β-Phe]: the Michaelis constant (Km) in test [1] was 130 ± 34 µM. Also, the “chiral radio-HPLC” value in test [2] is on record as “The β-Phe generated by AdmH was found to be solely (S)-β-Phe”.

These data come from article PMC2728764 (ACS chemical biology, 2008).
